Key:
Type in all cases: biochemical
human vanin-1 [1] = molecular target: T1, human vanin-1 (Homo sapiens (Human), UniProt O95497); experiment: Human Vanin-1 Enzyme Assay 1; settings: 25 pM human vanin-1, 50 uM pantetheine 7-amino-4-trifluoromethylcoumarin, 30 min preincubation, 60 min
Procedure, shortened: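 Purified His6/FLAG-tagged extracellular domain of human vanin-1, secreted from CHO cells, at 25 pM final in 50 mM Tris-HCl pH 8.0, 50 mM KCl, 0.005% Brij-35, 1.6 mM cysteamine, 0.5% DMSO. Inhibitor preincubated 30 min at room temperature; 50 uM pantetheine-AFC substrate, 60 min, fluorescence at 405/510 nm; 11-point four-fold dilution series.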

human vanin-1 [2] = molecular target: T1, human vanin-1; experiment: Human Vanin-1 Enzyme Assay 2; settings: 1 nM human vanin-1, 10 uM substrate, 45 min
Protocol: Human Vanin-1 Enzyme Assay 2.
The in vitro assay measures enzymatic cleavage of the fluorescently-labeled vanin substrate, pantetheine 7-amino-4-trifluoromethylcoumarin, by human vanin-1.
The vanin-1 protein was prepared in-house from a construct expressing the extracellular domain of human vanin-1 (GenBank ID NM_004666) preceded N-terminally by the honey bee melittin signal peptide, a GSG linker sequence, a His6X tag and a FLAG tag. The secreted, soluble enzyme was purified from the conditioned medium from a CHO cell line stably expressing the resulting protein. Enzyme purification was performed through sequential Ni NTA and size-exclusion chromatography steps.
On the day of the assay, dose response plates were prepared by diluting the inhibitors in DMSO at compound concentration 100-fold the final in-assay concentration. Concentration series were prepared by serially diluting in DMSO in a half-log series for a total of 11 data points. Intermediate compound plates containing compound in 10% DMSO were then created by diluting the compounds 10-fold in assay buffer consisting of 50 mM Tris-HCl pH=8.0, 50 mM KCl, 0.005% Brij-35 and 1.5 mM cysteamine. To begin the assay 3 μL were transferred from the intermediate compound plate to the assay plate.
A working solution of human vanin-1 was prepared by diluting the enzyme stock to 1.25 nM in assay buffer. Next, 24 μL of the vanin-1 working solution were transferred to the assay plate. The enzyme reaction was then initiated by the addition of 3 μL of 100 μM pantetheine 7-amino-4-trifluoromethylcoumarin prepared in assay buffer. The final concentrations in the assay were 1 nM human vanin-1 and 10 uM substrate. The final concentration of DMSO was 1%. The assay plates were incubated for 45 minutes and before they were read on a Spectramax M5 using a 405 nm excitation wavelength and a 505 nm emission wavelength for detection.

human vanin-1 [3] = molecular target: T1, human vanin-1; experiment: Human Vanin-1 Enzyme Assay 3; settings: 2 nM human vanin-1, 10 uM substrate, 15 min
Procedure, shortened: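 His/FLAG-tagged extracellular domain of human vanin-1 from CHO cells, used at 2 nM final, with 10 uM pantetheine-AFC substrate. Buffer: 50 mM Tris-HCl pH 8.0, 50 mM KCl, 0.005% Brij-35, 1.5 mM cysteamine, 1% DMSO. 15 min at room temperature; fluorescence read at 405/505 nm across an 11-point 2-fold dilution series.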

T1 sequence (O95497 22-491): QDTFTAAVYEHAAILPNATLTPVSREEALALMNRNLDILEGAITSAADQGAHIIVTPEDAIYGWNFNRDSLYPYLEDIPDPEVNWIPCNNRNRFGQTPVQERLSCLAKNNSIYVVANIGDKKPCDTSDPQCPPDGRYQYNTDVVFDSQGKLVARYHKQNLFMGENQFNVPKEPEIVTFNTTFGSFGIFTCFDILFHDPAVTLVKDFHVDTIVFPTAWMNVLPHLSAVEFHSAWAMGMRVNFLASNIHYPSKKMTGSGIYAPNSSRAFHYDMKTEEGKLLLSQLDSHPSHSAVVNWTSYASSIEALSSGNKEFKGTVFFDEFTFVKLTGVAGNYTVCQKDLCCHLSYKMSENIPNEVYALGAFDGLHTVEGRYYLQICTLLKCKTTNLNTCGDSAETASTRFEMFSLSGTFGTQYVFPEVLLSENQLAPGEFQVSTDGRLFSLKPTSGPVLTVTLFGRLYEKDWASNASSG

| SMILES | IC50 (human vanin-1 [1]) | IC50 (human vanin-1 [2]) | IC50 (human vanin-1 [3]) |
| --- | --- | --- | --- |
| NC(=O)c1ccc(CNc2ncc(C(=O)c3cc(F)cc(C(F)(F)F)c3)cn2)cc1 [Example 95, 4-[({5-[3-fluoro-5-(trifluoromethyl)benzoyl]pyrimidin-2-yl}amino)methyl] benzamide] | 91.9 nM | 242 nM | 166 nM |
| O=C(c1ccccc1)c1cnc(NCc2cnccn2)nc1 [Example 116, phenyl{2-[(pyrazin-2-ylmethyl)amino]pyrimidin-5-yl}methanone] | 419 nM | 561 nM | 321 nM |
| O=C(c1cccc(C(F)(F)F)c1)c1ccc(NCc2cccnc2)nn1 [Example 91, {6-[(pyridin-3-ylmethyl)amino]pyridazin-3-yl}[3-(trifluoromethyl)phenyl]methanone] | 789 nM | 783 nM | 91.3 nM |
| O=C(c1cnc(NCc2cnccn2)nc1)c1cccc(C(F)(F)F)c1 [Example 11, {2-[(pyrazin-2-ylmethyl)amino]pyrimidin-5-yl}[3-(trifluoromethyl)phenyl]methanone] | 6.4 nM | 9 nM | < 6.2 nM |
| O=C(c1ccccc1)c1cnc(NCc2cccnc2)nc1 [Example 34, phenyl{2-[(pyridin-3-ylmethyl)amino]pyrimidin-5-yl}methanone] | 53.7 nM | 108 nM | 69.3 nM |
| O=C(c1cnc(NCc2ccccc2)nc1)c1cccc(Cl)c1 [Example 24, [2-(benzylamino)pyrimidin-5-yl](3-chlorophenyl) methanone] | 1240 nM | 317 nM | 274 nM |
| Cc1ccc(CNc2ncc(C(=O)c3cccc(C(F)(F)F)c3)cn2)cn1 [Example 73, (2-{[(6-methylpyridin-3-yl)methyl]amino}pyrimidin-5-yl)[3-(trifluoromethyl)phenyl]methanone] | 1.7 nM | 10.6 nM | 1.2 nM |
| O=C(c1ccccc1)c1cnc(NCc2cccnn2)nc1 [Example 115, phenyl{2-[(pyridazin-3-ylmethyl)amino]pyrimidin-5-yl}methanone] | 1400 nM | 1510 nM | 806 nM |
| O=C(c1ccccc1)c1cnc(NC2(c3ccccc3)CC2)nc1 [Example 111, phenyl{2-[(1-phenylcyclopropyl)amino]pyrimidin-5-yl}methanone] | 367 nM | 202 nM | 182 nM |
| O=C(c1cnc(NCc2cccnc2)nc1)c1cccs1 [Example 100, {2-[(pyridin-3-ylmethyl)amino]pyrimidin-5-yl}(thiophen-2-yl)methanone] | 162 nM | 122 nM | 145 nM |
| Cc1cccc(C(=O)c2cnc(NCc3ccccn3)nc2)c1 [Example 38, (3-methylphenyl){2-[(pyridin-2-ylmethyl)amino]pyrimidin-5-yl}methanone] | 857 nM | 868 nM | 735 nM |
| NC(=O)c1ccc(CNc2ncc(C(=O)c3cccc(C(F)(F)F)c3)cn2)cc1 [Example 33, 4-[({5-[3-(trifluoromethyl)benzoyl]pyrimidin-2-yl}amino)methyl] benzamide] | 7.3 nM | 55.9 nM | 206 nM |
| O=C(c1cnc(NCc2cccnc2)nc1)c1ccc2c(c1)OCCO2 [Example 98, 2,3-dihydro-1,4-benzodioxin-6-yl{2-[(pyridin-3-ylmethyl)amino]pyrimidin-5-yl}methanone] | 102 nM | 149 nM | 55.5 nM |
| NC(=O)c1ccc(CNc2ncc(C(=O)c3ccc(F)c(C(F)(F)F)c3)cn2)cc1 [Example 87, 4-[({5-[4-fluoro-3-(trifluoromethyl)benzoyl]pyrimidin-2-yl}amino)methyl] benzamide] | 67.1 nM | 45.2 nM | 25.9 nM |
| O=C(c1cnc(NCc2cccnc2)nc1)c1cc(F)cc(C(F)(F)F)c1 [Example 128, [3-fluoro-5-(trifluoromethyl)phenyl]{2-[(pyridin-3-ylmethyl)amino]pyrimidin-5-yl}methanone] | 38.1 nM | 38.9 nM | 43.5 nM |
| O=C(O)c1ccc(CNc2ncc(C(=O)c3ccc(F)c(F)c3)cn2)cc1 [Example 49, 4-({[5-(3,4-difluorobenzoyl)pyrimidin-2-yl]amino}methyl) benzoic acid] | 5690 nM | > 7620 nM | 112 nM |
| NC(=O)c1ccc(CNc2ncc(C(=O)c3ccccc3)cn2)cc1 [Example 106, 4-{[(5-benzoylpyrimidin-2-yl)amino]methyl} benzamide] | 387 nM | 990 nM | 423 nM |
| Cc1ccc2cc(C(=O)c3cnc(NCc4cccnc4)nc3)ccc2n1 [Example 104, (2-methylquinolin-6-yl){2-[(pyridin-3-ylmethyl)amino]pyrimidin-5-yl}methanone] | 196 nM | 116 nM | 200 nM |
| O=C(c1cnc(NCc2cccnc2)nc1)c1ccccc1Cl [Example 102, (2-chlorophenyl){2-[(pyridin-3-ylmethyl)amino]pyrimidin-5-yl}methanone] | 858 nM | 549 nM | 722 nM |

The next lines start with the values.

| IC50 (human vanin-1 [1]) | IC50 (human vanin-1 [2]) | IC50 (human vanin-1 [3]) | SMILES |
| --- | --- | --- | --- |
| 50.5 nM | 31.8 nM | 18.1 nM | N#Cc1cccc(C(=O)c2cnc(NCc3cnccn3)nc2)c1 [Example 117, 3-({2-[(pyrazin-2-ylmethyl)amino]pyrimidin-5-yl}carbonyl) benzonitrile] |
| 2280 nM | 624 nM | 192 nM | COc1ccc(C(=O)c2cnc(NCc3ccc(C(N)=O)cc3)nc2)cc1 [Example 59, 4-({[5-(4-methoxybenzoyl)pyrimidin-2-yl]amino}methyl) benzamide] |
| 794 nM | 188 nM | 144 nM | COc1cccc(C(=O)c2cnc(NCc3ccccc3)nc2)c1 [Example 45, [2-(benzylamino)pyrimidin-5-yl](3-methoxyphenyl) methanone] |
| 872 nM | 334 nM | 259 nM | N#Cc1cccc(CNc2ncc(C(=O)c3ccccc3)cn2)c1 [Example 113, 3-{[(5-benzoylpyrimidin-2-yl)amino]methyl} benzonitrile] |
| 5570 nM | 856 nM | 1870 nM | N#Cc1cccc(C(=O)c2cnc(NCc3ccnnc3)nc2)c1 [Example 112, 3-({2-[(pyridazin-4-ylmethyl)amino]pyrimidin-5-yl}carbonyl) benzonitrile] |
| 28.2 nM | 44 nM | 40.6 nM | CS(=O)(=O)c1cccc(C(=O)c2cnc(NCc3ccc(C#N)cc3)nc2)c1 [Example 126, 4-[({5-[3-(methylsulfonyl)benzoyl]pyrimidin-2-yl}amino)methyl] benzonitrile] |
| 1740 nM | 170 nM | 543 nM | Cc1cccc(C(=O)c2cnc(NCc3ccccc3)nc2)c1 [Example 40, [2-(benzylamino)pyrimidin-5-yl](3-methylphenyl) methanone] |
| 36 nM | 37.8 nM | 16.6 nM | N#Cc1cccc(C(=O)c2cnc(NCc3cncnc3)nc2)c1 [Example 120, 3-({2-[(pyrimidin-5-ylmethyl)amino]pyrimidin-5-yl}carbonyl) benzonitrile] |
| 38.2 nM | 21.8 nM | 8.4 nM | N#Cc1cccc(C(=O)c2cnc(NCc3ccc(Cl)cc3)nc2)c1 [Example 28, 3-({2-[(4-chlorobenzyl)amino]pyrimidin-5-yl}carbonyl) benzonitrile] |
| 13.6 nM | 15.3 nM | 75 nM | CC(C)(Nc1ncc(C(=O)c2cccc(C#N)c2)cn1)c1ccccc1 [Example 3, 3-({2-[(2-phenylpropan-2-yl)amino]pyrimidin-5-yl}carbonyl)benzonitrile] |
| 111 nM | 110 nM | 96.7 nM | N#Cc1cccc(C(=O)c2cnc(NCc3cccnn3)nc2)c1 [Example 108, 3-({2-[(pyridazin-3-ylmethyl)amino]pyrimidin-5-yl}carbonyl) benzonitrile] |
| 122 nM | 72.7 nM | 107 nM | COc1ccc(CNc2ncc(C(=O)c3cccc(C#N)c3)cn2)cc1 [Example 29, 3-({2-[(4-methoxybenzyl)amino]pyrimidin-5-yl}carbonyl) benzonitrile] |

Reference: US10308615B2, “Heterocyclic compounds as inhibitors of Vanin-1 enzyme” (Pfizer Inc., priority 2015, dated 2019)
